# In patent US20080171704A1, “Composition and method for treating diabetes” (priority 2001, published 2008):
# Where a SMILES comes first, the peptide text is derived from it.
# Key:
# [1] = test system: ARIP cells, a rat pancreatic duct cell line; experiment: ARIP cell BrdU proliferation bioassay; type: cell-based; conditions: FIG. 1
# Procedure: To confirm that the synthetic molecule is bioactive, a bioassay may be used to confirm the activity. ARIP cells, a rat pancreatic duct cell line, obtained from ATCC (Manassas, Va.) are used in the assay. Cells are plated into a 96-well culture plate at 10,000 cells/well, and cultured for 24 hours in Dulbecco's […] Essential Medium (DMEM) containing 10% fetal bovine serum. After 24 hours, the medium is replaced with DMEM without serum. […] After 21 hours, the medium is supplemented with bromodeoxyuridine (BrdU) labeling solution from a BrdU cell proliferation ELISA kit (Roche Molecular Biochemicals) and cultured for a further 3 hours. At 24 hours the cells are dried at 60° C. for 60 minutes, fixed and denatured. They are exposed to BrdU antibody for 90 minutes and developed for 15 minutes, all according to kit instructions. BrdU labeling is quantitated on a Wallac Victor 1420 Multilabel Counter. Results are compared against a standard curve of cells grown on the same culture plate, seeded at densities from 100 to 20,000 cells per well.
# [2] = test system: normal hamsters; experiment: Islet formation in normal hamsters; type: in vivo, Syrian golden Hamsters; conditions: 5 mg/kg IP daily
# Procedure: FIG. 2. Increase in pancreatic endocrine cell mass with INGAP Peptide. Normal Syrian golden Hamsters were treated with saline (control) or INGAP Peptide IP for either 10 days or 30 days. The number of islets/ml was determined with a computer-aided Morphometric system employing Image-Pro Plus software.
# INGAP Peptide was studied for its effects on islet formation in normal hamsters. INGAP Peptide 5 mg/kg (25 mg/m^2) was given IP daily for 4 weeks and β-cell mass was assessed at 10 days and at 30 days. […] The islet neogenesis effect was manifested by production of more insulin and an increase in the number of islets in the pancreata. Newly formed β-cells appeared in the wall of, and budding from, pancreatic ducts. These insulin-positive cells resulted from ductal epithelial cell differentiation and islet cell growth, and their appearance was proportional to the dose and duration of treatment with INGAP Peptide. Over longer periods of treatment, these cells migrated away from the duct and formed islets in the parenchyma of the pancreas. After 10 consecutive days of INGAP Peptide administration, there was a 30% increase in islet number, and by 30 days there was a doubling of the number of islets in the tissues, consistent with the prior observations using ilotropin, INGAP, and cellophane wrapping in animal models.
# [3] = Stability of bulk INGAP Peptide (lyophilized powder); type: physicochemical
# Procedure: Stability is determined by comparing various parameters including, but not limited to, degree of purity, total percentage of impurities, percentage of individual impurities (as determined by HPLC or other suitable quantitative method), appearance, and water content of the sample. An HPLC method can be used to determine any increase in the levels of degradation products relative to the level of INGAP Peptide. INGAP Peptide samples (both solution and lyophilized powder) are stored at various temperatures, in the presence or absence of humidity, and in light or dark vials. Degradation during different storage conditions can lead to an increase in impurities and decrease in INGAP Peptide content. It is desirable that the sample preparation is more than 80% pure, preferably more than 90% pure, more preferably more than 95%, and most preferably more than 97% pure.
# Purity of the INGAP Peptide is maintained under these conditions and degradation products are lower than the acceptable levels.
# [4] = test system: patients; experiment: Human clinical studies in type I or type II diabetes mellitus; type: in vivo; conditions: versus placebo
# Procedure: Doses are often based on the results of efficacy and safety studies in animals. Two doses of INGAP Peptide, 7.5 mg (0.125 mg/kg, or 4.625 mg/m^2 for a 60 kg patient) and 120 mg ([…], or 74 mg/m^2 for a 60 kg patient) are exemplified in the treatment of type I or type II diabetes mellitus. The following parameters are evaluated to determine efficacy of INGAP Peptide treatment. • 1. A reduction of fasting glucose levels by >35 mg/dl while the total insulin dose is maintained. • 2. A reduction of insulin dose by 25% with fasting glucose levels maintained in the normal range as determined by the American Diabetes Association (ADA) criteria. • 3. An increase in fasting C-peptide >1 ng/ml is obtained. An increase in C-peptide of >2 ng/ml in response to Sustacal® (Boost®) is obtained.
# Each patient is randomized to receive one single intramuscular injection of INGAP Peptide. After evaluating efficacy and safety data, patients could be given further INGAP Peptide injections as deemed appropriate by the physician.
# Stimulated C-peptide tests are performed in the morning after an overnight fasting period of at least 10 hours. The tests are performed only if the fasting glucose is between 80 and 250 mg/dl. Patients can take their diabetes medications the evening before, but should not take them the morning of the test until the test is completed. Blood samples for the determination of C-peptide are drawn immediately before Boost® ingestion, and at 0.5, 2, and 4 hours post-ingestion. Boost® is administered through ingestion. Patients are considered insulin deficient if their fasting C-peptide is <1.0 ng/ml and their maximum stimulated C-peptide value is <2.0 ng/ml.
# [5] = test system: C57BL/6J mice made diabetic with STZ; experiment: In vivo efficacy study in streptozotocin-diabetic mice
# Procedure: FIG. 3. Time course of blood glucose following injection of INGAP Peptide […] twice daily or saline for 39 days to C57BL/6J mice rendered diabetic using a regimen of multiple injections of low-dose streptozotocin. Blood glucose levels were measured every three days.
# C57BL/6J mice were made diabetic with STZ (35 mg/kg/day×5 days) and divided in INGAP Peptide-treated (250 ? g twice daily) and saline control groups of 4 animals each. […] The appearance of glucagon producing cells is noteworthy since glucagon plays a major role in the defense against hypoglycemia. This feature of the INGAP Peptide induced islet neogenesis could help to reverse the impaired counter regulatory control of hypoglycemia associated with the overzealous treatment of diabetes. Hypoglycemia was not observed in any of the INGAP Peptide-treated animals. In saline-treated control animals, no new islet formation was observed.
# [6] = test system: beagle dogs; experiment: 34-day dog repeat-dose toxicology study; type: in vivo
# Procedure: FIG. 8. Effects of daily injection of INGAP Peptide to dogs for 34 days on the area of cells in the pancreas that becomes positive for insulin by immunohistochemical staining. Data are mean ±SEM. The percentage of cross-sectional area stained for insulin was determined with an Olympus microscope (150×) and image analysis software (Image Pro Plus Version 4.0, Media Cybernetics).
# A repeat-dose toxicology study was conducted in beagle dogs for 34 days with daily IM injection of INGAP Peptide at 0, 0.5, 1.5, and 10 mg/kg/day. Pancreatic tissue was obtained for quantitation of β-cell mass by immunohistochemistry from animals sacrificed on Day 34, at termination of treatment, and from recovery animals sacrificed 25 days after termination of treatment. Pancreatic β-cell mass was increased following INGAP Peptide administration (see FIG. 8).
# [7] = test system: CD-1 mice; experiment: 31-day mouse repeat-dose toxicology study; type: in vivo
# Procedure: (§1) FIG. 7. Immunopositive tissue area in normal mouse following treatment with INGAP Peptide for 31 days. Data are mean ±SEM. The percentage of cross-sectional area stained for insulin was determined with an Olympus microscope (150×) and image analysis software (Image Pro Plus Version 4.0, Media Cybernetics).
# (§2) A repeat-dose toxicology study was conducted in mice with 31 days of daily injection of INGAP Peptide at 0, 2, 20, and 100 mg/kg/day. In this study, four treatment groups of 10 males and 10 females each were allocated, as were two groups of recovery animals (5 males and 5 females). Blood was collected at termination and necropsies were performed for gross and microscopic observations. Clinical pathology and serum levels were evaluated in approximately half the animals in each group. Selected organs (brain, adrenal, heart, kidney, liver, lung, pancreas, and spleen) were weighed and relative organ weights were calculated. A section of the pancreas was removed and frozen in liquid nitrogen for evaluation for insulin content and sections of pancreas tissue were submitted for independent microscopic examination. Recovery animals were terminated 28 days after cessation of dosing. Various parameters for further study as well as potentially drug-related abnormal findings were evaluated to determine the reproducibility and potential clinical significance.
# [8] = 31-day mouse repeat-dose toxicology study; type: in vivo, mice; conditions: mouse, in vivo; CD-1 mice, 31-day dosing; read-out: no adverse effect level (NOAEL)
# Procedure: as §1, §2
smiles,measurement,setting,value
"CC[C@H](C)[C@H](N)C(=O)NCC(=O)N[C@@H](CC(C)C)C(=O)N[C@@H](Cc1c[nH]cn1)C(=O)N[C@@H](CC(=O)O)C(=O)N1CCC[C@H]1C(=O)N[C@@H](CO)C(=O)N[C@@H](Cc1c[nH]cn1)C(=O)NCC(=O)N[C@H](C(=O)N[C@@H](CC(C)C)C(=O)N1CCC[C@H]1C(=O)N[C@@H](CC(N)=O)C(=O)NCC(=O)N[C@@H](CO)C(=O)O)[C@@H](C)O [INGAP Peptide, NH2-Ile-Gly-Leu-His-Asp-Pro-Ser-His-Gly-Thr-Leu-Pro-Asn-Gly-Ser-COOH] (H-IGLHDPSHGTLPNGS-OH)",increase in cell count compared with controls,"[1]; 0.1 µg/ml INGAP Peptide, 24 h, BrdU ELISA",~1.6 fold
same,"cell number, dose dependence",[1],dose dependant increase in cell number
same,number of islets compared with placebo-treated animals,[2]; FIG. 2,significant increase
same,increase in islet number,[2]; after 10 consecutive days,30%
same,number of islets in the tissues,[2]; by 30 days,doubling
same,degradation on further storage,"[3]; lyophilized powder, storage up to six-months",does not cause any noticeable degradation
same,stability of lyophilized powder,[3]; various storage conditions,stable under various storage conditions
same,sugar tolerance,[4]; intramuscular injection,improved sugar tolerance
same,C-peptide level in response to Boost®,[4],an increase in C-peptide level in response to Boost®
same,fasting C-peptide level,[4],an increase in fasting C-peptide level
same,fasting glucose level,[4],a reduction in fasting glucose level
same,insulin dose required,[4],a reduction in insulin does required
same,blood glucose concentrations,"[5]; 250 µg twice daily for 39 days, all four treated animals, FIG. 3",restored to normal
same,transdifferentiation of ductal cells (PDX-1 expression),[5]; FIG. 5,induced transdifferentiation of ductal cells
same,histopathologic evaluation of islets,[5]; FIGS. 4 and 6,both the presence of normal-appearing islets and areas of new islet formation
same,hypoglycemia,[5]; any of the treated animals,not observed
same,durability of the effect after dosing stopped,"[5]; dosing stopped after 39 days, study terminated at 48 days",48 days
same,islet inflammation,"[5]; versus saline-treated STZ-diabetic animals, FIG. 6",markedly reduced
same,pancreatic tissue section review,[6]; 34-day daily IM dosing,"no changes such as edema, inflammatory cell infiltration, necrosis or atrophy"
same,pancreatic β-cell mass,"[6]; daily IM 0.5, 1.5, 10 mg/kg/day for 34 days, immunohistochemistry, FIG. 8",increased
same,insulin-positive tissue area,"[7]; 31 days, FIG. 7",increase in insulin-positive tissue area
same,number of small islets,[7]; duct-associated and amongst acinar tissue,increase in the number of small islets
same,extramedullary hematopoiesis in the spleen,"[7]; mouse, in vivo",seen in one male animal at the high dose
same,injection site irritation,"[7]; mouse, in vivo",observed in males and females with increased frequency at the highest dose
same,microscopic pancreas findings,"[7]; mouse, in vivo","No microscopic evidence of inflammatory cell infiltration, edema, necrosis or atrophy"
same,NOAEL,[8],> 100 mg/kg
